Source: patent publication US20210324442A1, “In vitro Transcription-Translation Metabolic Networks to Measure Quantity or Activity of Enzymes” (priority 2020, published 2021)

Experiments:
[1] = molecular target: T1, phosphoenolpyruvate carboxylase (Escherichia coli, UniProt P00864); assay: CFPS yield with raised initial Asp; assay type: biochemical, E. coli; conditions: 12 mM Asp compared with conventional 2 mM Asp, one-hour reaction
T1 construct: many enzymes which likely retain activity in the lysate-based CFPS reactions consume precious ATP superfluously; endogenous in cells; host or cells: E. coli BL21 Star (DE3) cell extract (lysate)
T1 sequence (P00864 whole entry): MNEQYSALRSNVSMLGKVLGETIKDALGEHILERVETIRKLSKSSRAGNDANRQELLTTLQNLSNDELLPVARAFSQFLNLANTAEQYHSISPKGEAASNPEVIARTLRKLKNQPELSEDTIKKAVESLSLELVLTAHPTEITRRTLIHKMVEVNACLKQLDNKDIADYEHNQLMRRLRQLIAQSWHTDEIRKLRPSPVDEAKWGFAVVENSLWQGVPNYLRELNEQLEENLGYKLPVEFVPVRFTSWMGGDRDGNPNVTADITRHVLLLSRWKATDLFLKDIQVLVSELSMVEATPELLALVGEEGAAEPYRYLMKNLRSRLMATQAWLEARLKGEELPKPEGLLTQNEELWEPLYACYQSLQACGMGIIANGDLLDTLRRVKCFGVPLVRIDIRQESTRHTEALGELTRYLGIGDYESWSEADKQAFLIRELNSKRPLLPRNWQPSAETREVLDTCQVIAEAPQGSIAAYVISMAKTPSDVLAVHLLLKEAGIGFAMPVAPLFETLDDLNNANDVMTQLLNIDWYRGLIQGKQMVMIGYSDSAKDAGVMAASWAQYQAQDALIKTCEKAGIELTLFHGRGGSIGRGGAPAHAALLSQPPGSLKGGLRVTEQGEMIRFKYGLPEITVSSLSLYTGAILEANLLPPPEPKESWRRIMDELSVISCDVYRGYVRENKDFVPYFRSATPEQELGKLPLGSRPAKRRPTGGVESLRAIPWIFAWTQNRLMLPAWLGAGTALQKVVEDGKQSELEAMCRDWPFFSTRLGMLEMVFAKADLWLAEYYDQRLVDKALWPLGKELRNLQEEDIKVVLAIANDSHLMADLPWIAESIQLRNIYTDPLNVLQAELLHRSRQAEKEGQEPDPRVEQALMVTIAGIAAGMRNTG
Excerpt: The metabolic engineering approach presented in this work may also be useful for modulating protein expression yield or other desired products from cell-free reactions. Indeed, many enzymes which likely retain activity in the lysate-based CFPS reactions consume precious ATP superfluously. For example, GLNS, which is inhibited in this work, consumes ATP in the process of synthesizing Gln. […] Indeed, during the process of completing the work described herein, we learned that phosphoenolpyruvate carboxylase circumvents the production of ATP from PEP, and that its inhibition might improve CFPS performance. Accordingly, we identified Asp as an inhibitor of this enzyme and observed that CFPS initiated with 12 mM Asp compared with the conventional 2 mM Asp increased CFPS yield by 38% over a one-hour reaction (FIG. 8).
(§1) Gln was omitted from Gln-sensing reactions. […] Results were obtained after 60 minutes.

E. coli ASNase = molecular target: T2, E. coli ASNase (Escherichia coli, UniProt P00805); assay: CFPS reactions producing GFP in the presence of E. coli ASNase and ASP; assay type: biochemical; conditions: 1.54 IU/mL ASNase + 6.5 mM ASP vs 1.54 IU/mL ASNase
T2 construct: purchased
T2 sequence (P00805 23-348): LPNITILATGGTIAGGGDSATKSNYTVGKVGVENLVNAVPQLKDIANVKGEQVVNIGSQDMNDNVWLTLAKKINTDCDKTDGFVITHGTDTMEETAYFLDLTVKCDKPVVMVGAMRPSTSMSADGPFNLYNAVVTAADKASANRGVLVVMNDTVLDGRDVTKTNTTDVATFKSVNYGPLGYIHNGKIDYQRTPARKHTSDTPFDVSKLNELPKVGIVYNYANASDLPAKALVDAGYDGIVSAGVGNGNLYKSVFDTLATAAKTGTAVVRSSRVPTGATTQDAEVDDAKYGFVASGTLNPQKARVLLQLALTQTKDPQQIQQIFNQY
Procedure: In FIG. 8, CFPS reactions producing GFP in the presence of E. coli ASNase and ASP. Reported conditions include 0 IU/mL ASNase (no ASNase added), 1.54 IU/mL ASNase, and 1.54 IU/mL ASNase+6.5 mM ASP. […] No plasmid (NP) control tests for the impact of CFPS machinery and possible reaction products if added to a CFPS reaction producing GFP. As such, for the NP control 5 μL of a cellfree reaction product (where no plasmid was added such that no protein expression was templated) was added to a second CFPS reaction producing GFP. […] Error bars represent one standard deviation for n=2 CFPS reactions.

[2] = system: E. coli-based CFPS reactions producing GFP; assay: CFPS Gln sensor assay, aqueous samples (GFP reporter); assay type: biochemical; conditions: 70 mM MSO, Gln omitted as reagent, 1 hr, n=2, read-out: EC50 value (Hill equation fit of GFP response)
Procedure: Reactions omitted Gln as a reagent but included 70 mM MSO. Aqueous samples of known Gln concentrations were added to the CFPS reaction. On the graph, the x-axis represents the final concentration of Gln in the CFPS reaction (ranging from 0 to 2400 μM). Each data point represents a CFPS reaction after 1 hr with n=2 at each Gln concentration. […] The inset plots linear regression of the data. The solid blue line represents the fit, solid red bands represent the 95% confidence of fit, and dashed black bands represent the 95% confidence range for a single-point prediction.
Example 1: E. coli cell extract containing bacteriophage T7 RNA polymerase was prepared as previously described. Briefly, 5 mL overnight culture of BL21 Star™ (DE3) was added to 100 mL 2xYT. When OD600 reached ˜2.0, culture was transferred to 900 mL 2xYT. 1 L cultures were induced with 1 mM IPTG at OD600 0.4-0.6 and harvested at OD600 ˜2.5. All bacterial cultures were incubated at 37° C. and 280 RPM. Cells were homogenized with three passes at 21000 psi using the EmulsiflexB15 French press homogenizer (Avestin, Ottawa, Calif.) and centrifuged at 12000 RCF for 10 min. Clarified lysate was then incubated at 37° C. and 280 RPM for 30 min. Cell extract was dialyzed using 14 kDa MW cut-off cellulose membrane tubing (MilliporeSigma, Billerica, Mass.) for 4 hr at 4° C. immediately following incubation at 37° C. […]

[3] = system: E. coli-based CFPS reactions producing GFP; assay: CFPS Gln sensor assay in the presence of human serum; assay type: biochemical; conditions: 70 mM MSO, RNAse inhibitor, 14% (v/v) human serum, 1 hr, n=2; read-out: EC50 value (Hill equation fit of GFP response)
Procedure: Reactions omitted Gln as a reagent but contained 70 mM MSO, RNAse inhibitor, and 14% (v/v) human serum with increasing Gln concentrations. The x-axis represents the corresponding Gln concentration in the CFPS reaction. Each data point represents a CFPS reaction after 1 hr with n=2 at each CFPS Gln concentration. […] Solid blue line represents the fit, solid red bands represent the 95% confidence of fit, and dashed black bands represent the 95% confidence range for a single-point prediction.
Example 1: E. coli cell extract containing bacteriophage T7 RNA polymerase was prepared as previously described. Briefly, 5 mL overnight culture of BL21 Star™ (DE3) was added to 100 mL 2xYT. When OD600 reached ˜2.0, culture was transferred to 900 mL 2xYT. 1 L cultures were induced with 1 mM IPTG at OD600 0.4-0.6 and harvested at OD600 ˜2.5. All bacterial cultures were incubated at 37° C. and 280 RPM. Cells were homogenized with three passes at 21000 psi using the EmulsiflexB15 French press homogenizer (Avestin, Ottawa, Calif.) and centrifuged at 12000 RCF for 10 min. Clarified lysate was then incubated at 37° C. and 280 RPM for 30 min. Cell extract was dialyzed using 14 kDa MW cut-off cellulose membrane tubing (MilliporeSigma, Billerica, Mass.) for 4 hr at 4° C. immediately following incubation at 37° C.
as §1

[4] = molecular target: glutamine synthetase (GLNS) (Escherichia coli, UniProt P0A9C5)
Chain of glutamine synthetase (GLNS) (P0A9C5 2-469 limits assumed): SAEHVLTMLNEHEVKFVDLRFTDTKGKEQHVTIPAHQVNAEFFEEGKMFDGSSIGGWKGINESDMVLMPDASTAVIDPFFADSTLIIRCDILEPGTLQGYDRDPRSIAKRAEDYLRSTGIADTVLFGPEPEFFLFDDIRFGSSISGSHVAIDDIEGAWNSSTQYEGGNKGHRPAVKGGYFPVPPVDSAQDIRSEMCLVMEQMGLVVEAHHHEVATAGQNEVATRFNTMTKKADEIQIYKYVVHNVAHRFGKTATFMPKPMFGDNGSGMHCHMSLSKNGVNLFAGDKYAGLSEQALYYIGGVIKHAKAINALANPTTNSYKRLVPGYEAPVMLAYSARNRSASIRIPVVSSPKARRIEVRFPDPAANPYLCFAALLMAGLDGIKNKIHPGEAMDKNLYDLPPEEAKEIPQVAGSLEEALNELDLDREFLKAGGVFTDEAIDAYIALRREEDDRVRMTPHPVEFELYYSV
Procedure: Example 2: Cell-free protein synthesis reactions were formulated in 96-well plates with the following specifications: 25% (v/v) cell extract, 12 nM pY71-sfGFP^37, 10-20 mM magnesium glutamate (concentration adjusted for optimal protein yield), 1 mM 1,4-diaminobutane, 1.5 mM spermidine, 40 mM phosphoenolpyruvate, 10 mM ammonium glutamate, 175 mM potassium glutamate, 2.7 mM potassium oxalate, 0.33 mM nicotinamide adenine dinucleotide, 0.27 mM coenzyme A, 1.2 mM ATP, 0.86 mM CTP, 0.86 mM GTP, 0.86 mM UTP, 0.17 mM folinic acid, 6 mM aspartate, 6 mM asparagine, and 2 mM of the 16 remaining proteinogenic amino acids. Gln was omitted from Gln-sensing reactions. For reactions containing human serum (Gemini Bio Products, Sacramento, Calif.), murine RNAse inhibitor (New England BioLabs, Ipswich MA) was added to a final concentration of 0.8 U/μL CFPS. Reactions were incubated at 37° C. in a BioTek SynergyMX plate reader, shaken for 30 seconds, and analyzed for fluorescence every 4-6 minutes at 480/510 nm excitation/emission wavelengths. Results were obtained after 60 minutes. Assay signal strength was calculated as the ratio of GFP RFU at saturating Gln concentrations to the GFP RFU at 0 μM Gln.

Compound: N[C@@H](CC(=O)O)C(=O)O [Asp, L-aspartate]
- increase of CFPS yield [1]: 38%
- effect of ASP supplementation on ASNase activity (E. coli ASNase): inhibitory effect

Compound: NC(=O)CC[C@H](N)C(=O)O [Gln, L-glutamine]
- EC50 [2]: 154 µM
- EC50 [3]: 100 µM

Compound: CS(=N)(=O)CC[C@H](N)C(=O)O (stereo partly drawn) [MSO, Methionine sulfoximine]
- effect on CFPS expression yield ([4]; concentrations up to 80 mM in the presence of 2 mM Gln): little effect
- signal-to-noise ratio of the assay ([4]; increased linearly with increasing MSO concentration up to 70 μM): ~10
